Results: the supplement of paper PMC9663587

Key:
[1] = compound: C=CC(=O)Nc1ccc(C(=O)Nc2[nH]nc3c2CN(C(=O)N[C@H](CN(C)C)c2ccccc2)C3(C)C)cc1 [YKL-5-124]; experiment: increase in dead-cell fraction, 72 h; higher = more death;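 further: breast cancer cell lines in 384-well plates, stained with Hoechst plus LIVE/DEAD far red dye and imaged, cells above an LDR intensity threshold counted dead, Hoechst-negative corpses included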
[2] = compound: CC(=O)c1c(C)c2cnc(Nc3ccc(N4CCN(CCOCCOCCOCCNC(=O)COc5cccc6c5C(=O)N(C5CCC(=O)NC5=O)C6=O)CC4)cn3)nc2n(C2CCCC2)c1=O [BSJ-03-123]; experiment: as above
[3] = compound: CC(=O)c1c(C)c2cnc(Nc3ccc(N4CCNCC4)cn3)nc2n(C2CCCC2)c1=O; experiment: as above
[4] = compound: CCN1CCN(Cc2ccc(Nc3ncc(F)c(-c4cc(F)c5nc(C)n(C(C)C)c5c4)n3)nc2)CC1; experiment: as above
[5] = compound: T1, CCOc1cc2ncc(C#N)c(Nc3ccc(OCc4ccccn4)c(Cl)c3)c2cc1NC(=O)/C=C/CN(C)C [Neratinib/HKI272]; experiment: as above
[6] = compound: CCc1cnn2c(NCc3ccc[n+]([O-])c3)cc(N3CCCC[C@H]3CCO)nc12; experiment: as above
[7] = compound: CN(C)C(=O)c1cc2cnc(Nc3ccc(N4CCNCC4)cn3)nc2n1C1CCCC1 [LEE011/Ribociclib]; experiment: as above
[8] = compound: CN(C)C/C=C/C(=O)Nc1ccc(C(=O)N2CCC[C@@H](Nc3ncc(Cl)c(-c4c[nH]c5ccccc45)n3)C2)cc1 [THZ531]; experiment: as above
[9] = compound: CN(C)C/C=C/C(=O)Nc1ccc(C(=O)Nc2cccc(Nc3ncc(Cl)c(-c4c[nH]c5ccccc45)n3)c2)cc1 [THZ1]; experiment: as above
[10] = compound: T2, CN1CC[C@H](c2c(O)cc(O)c3c(=O)cc(-c4ccccc4Cl)oc23)[C@H](O)C1 [Flavopiridol]; experiment: as above
[11] = compound: T1, Neratinib/HKI272; experiment: GR value, 72 h; higher = faster growth (1 = untreated, <0 = killing);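 further: breast cancer and non-malignant breast epithelial lines, nine half-log doses, viable cells counted by Hoechst and LIVE/DEAD dye imaging versus time-zero plates and DMSO controls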
[12] = compound: T2, Flavopiridol; experiment: as above

## EFM19
[1]; 0.001 µM
  increase in dead-cell fraction: 0.0076
[1]; 0.003162 µM
  increase in dead-cell fraction: 0.0133
[1]; 0.01 µM
  increase in dead-cell fraction: 0.0465
[1]; 0.03162 µM
  increase in dead-cell fraction: 0.0193
[1]; 0.1 µM
  increase in dead-cell fraction: 0.0243
[1]; 0.3162 µM
  increase in dead-cell fraction: 0.0368
[1]; 1 µM
  increase in dead-cell fraction: 0.0396
[1]; 3.162 µM
  increase in dead-cell fraction: 0.0167
[1]; 10 µM
  increase in dead-cell fraction: 0.0439
[2]; 0.001 µM
  increase in dead-cell fraction: -0.0051
[2]; 0.003162 µM
  increase in dead-cell fraction: -0.0117
[2]; 0.01 µM
  increase in dead-cell fraction: 0.001
[2]; 0.03162 µM
  increase in dead-cell fraction: 0.0013
[2]; 0.1 µM
  increase in dead-cell fraction: -0.0048
[2]; 0.3162 µM
  increase in dead-cell fraction: -0.0048
[2]; 1 µM
  increase in dead-cell fraction: 0.009
[2]; 3.162 µM
  increase in dead-cell fraction: 0.0049
[2]; 10 µM
  increase in dead-cell fraction: 0.0309
[3]; 0.0003162 µM
  increase in dead-cell fraction: -0.0086
[3]; 0.001 µM
  increase in dead-cell fraction: -0.0086
[3]; 0.003162 µM
  increase in dead-cell fraction: -0.0036
[3]; 0.01 µM
  increase in dead-cell fraction: -0.0059
[3]; 0.03162 µM
  increase in dead-cell fraction: -0.0024
[3]; 0.1 µM
  increase in dead-cell fraction: -0.0087
[3]; 0.3162 µM
  increase in dead-cell fraction: 0.0108
[3]; 1 µM
  increase in dead-cell fraction: 0.0355
[3]; 3.162 µM
  increase in dead-cell fraction: 0.0448
[4]; 0.001 µM
  increase in dead-cell fraction: -0.0101
[4]; 0.003162 µM
  increase in dead-cell fraction: -0.0007
[4]; 0.01 µM
  increase in dead-cell fraction: 0.0035
[4]; 0.03162 µM
  increase in dead-cell fraction: 0.0136
[4]; 0.1 µM
  increase in dead-cell fraction: 0.0179
[4]; 0.3162 µM
  increase in dead-cell fraction: 0.0249
[4]; 1 µM
  increase in dead-cell fraction: 0.0149
[4]; 3.162 µM
  increase in dead-cell fraction: 0.0183
[4]; 10 µM
  increase in dead-cell fraction: 0.0445
[5]; 0.0003162 µM
  increase in dead-cell fraction: -0.0049
[5]; 0.001 µM
  increase in dead-cell fraction: -0.0044
[5]; 0.003162 µM
  increase in dead-cell fraction: -0.0012
[5]; 0.01 µM
  increase in dead-cell fraction: -0.0052
[5]; 0.03162 µM
  increase in dead-cell fraction: -0.0028
[5]; 0.1 µM
  increase in dead-cell fraction: -0.0038
[5]; 0.3162 µM
  increase in dead-cell fraction: -0.0011
[5]; 1 µM
  increase in dead-cell fraction: -0.0033
[5]; 3.162 µM
  increase in dead-cell fraction: 0.0028
[6]; 0.0001 µM
  increase in dead-cell fraction: -0.0077
[6]; 0.0003162 µM
  increase in dead-cell fraction: -0.0011
[6]; 0.001 µM
  increase in dead-cell fraction: -0.006
[6]; 0.003162 µM
  increase in dead-cell fraction: -0.0052
[6]; 0.01 µM
  increase in dead-cell fraction: -0.0076
[6]; 0.03162 µM
  increase in dead-cell fraction: 0.0197
[6]; 0.1 µM
  increase in dead-cell fraction: 0.148
[6]; 0.3162 µM
  increase in dead-cell fraction: 0.323
[6]; 1 µM
  increase in dead-cell fraction: 0.478
[7]; 0.001 µM
  increase in dead-cell fraction: -0.0027
[7]; 0.003162 µM
  increase in dead-cell fraction: -0.0038
[7]; 0.01 µM
  increase in dead-cell fraction: -0.0001
[7]; 0.03162 µM
  increase in dead-cell fraction: -0.0005
[7]; 0.1 µM
  increase in dead-cell fraction: 0.0163
[7]; 0.3162 µM
  increase in dead-cell fraction: 0.0047
[7]; 1 µM
  increase in dead-cell fraction: 0.0042
[7]; 3.162 µM
  increase in dead-cell fraction: 0.0248
[7]; 10 µM
  increase in dead-cell fraction: 0.0149
[8]; 0.0001 µM
  increase in dead-cell fraction: -0.0038
[8]; 0.0003162 µM
  increase in dead-cell fraction: -0.0067
[8]; 0.001 µM
  increase in dead-cell fraction: -0.005
[8]; 0.003162 µM
  increase in dead-cell fraction: -0.0057
[8]; 0.01 µM
  increase in dead-cell fraction: -0.0007
[8]; 0.03162 µM
  increase in dead-cell fraction: 0.0062
[8]; 0.1 µM
  increase in dead-cell fraction: 0.0006
[8]; 0.3162 µM
  increase in dead-cell fraction: -0.0035
[8]; 1 µM
  increase in dead-cell fraction: 0.527
[9]; 0.0001 µM
  increase in dead-cell fraction: -0.004
[9]; 0.0003162 µM
  increase in dead-cell fraction: -0.0048
[9]; 0.001 µM
  increase in dead-cell fraction: -0.0107
[9]; 0.003162 µM
  increase in dead-cell fraction: -0.0093
[9]; 0.01 µM
  increase in dead-cell fraction: -0.0068
[9]; 0.03162 µM
  increase in dead-cell fraction: -0.0102
[9]; 0.1 µM
  increase in dead-cell fraction: -0.002
[9]; 0.3162 µM
  increase in dead-cell fraction: 0.0031
[9]; 1 µM
  increase in dead-cell fraction: 0.215
[10]; 0.0001 µM
  increase in dead-cell fraction: -0.0095
[10]; 0.0003162 µM
  increase in dead-cell fraction: -0.003
[10]; 0.001 µM
  increase in dead-cell fraction: -0.0007
[10]; 0.003162 µM
  increase in dead-cell fraction: 0.0016
[10]; 0.01 µM
  increase in dead-cell fraction: 0.0002
[10]; 0.03162 µM
  increase in dead-cell fraction: -0.0106
[10]; 0.1 µM
  increase in dead-cell fraction: -0.0044
[10]; 0.3162 µM
  increase in dead-cell fraction: 0.0118
[10]; 1 µM
  increase in dead-cell fraction: 0.223
[11]; 0.0003162 µM
  GR value: 1.07 GR
[11]; 0.001 µM
  GR value: 1.12 GR
[11]; 0.003162 µM
  GR value: 1.12 GR
[11]; 0.01 µM
  GR value: 1.05 GR
[11]; 0.03162 µM
  GR value: 1.06 GR
[11]; 0.1 µM
  GR value: 1.03 GR
[11]; 0.3162 µM
  GR value: 0.933 GR
[11]; 1 µM
  GR value: 0.811 GR
[11]; 3.162 µM
  GR value: 0.688 GR
[12]; 0.0001 µM
  GR value: 1.03 GR
[12]; 0.0003162 µM
  GR value: 0.976 GR
[12]; 0.001 µM
  GR value: 0.978 GR
[12]; 0.003162 µM
  GR value: 0.991 GR
[12]; 0.01 µM
  GR value: 0.877 GR
[12]; 0.03162 µM
  GR value: 0.976 GR
[12]; 0.1 µM
  GR value: 0.809 GR
[12]; 0.3162 µM
  GR value: 0.466 GR
[12]; 1 µM
  GR value: -0.199 GR
